The values below are quoted from earlier work in US20080103154A1, “3, 4-dihydro-2(IH)-quinolinone and 2(1H)-quinolinone derivatives” (Concert Pharmaceuticals Inc., priority 2006, published 2008).

Data set [1] addresses T1, 5-HT1A (Homo sapiens, UniProt P08908).
T1 sequence (P08908 1-422): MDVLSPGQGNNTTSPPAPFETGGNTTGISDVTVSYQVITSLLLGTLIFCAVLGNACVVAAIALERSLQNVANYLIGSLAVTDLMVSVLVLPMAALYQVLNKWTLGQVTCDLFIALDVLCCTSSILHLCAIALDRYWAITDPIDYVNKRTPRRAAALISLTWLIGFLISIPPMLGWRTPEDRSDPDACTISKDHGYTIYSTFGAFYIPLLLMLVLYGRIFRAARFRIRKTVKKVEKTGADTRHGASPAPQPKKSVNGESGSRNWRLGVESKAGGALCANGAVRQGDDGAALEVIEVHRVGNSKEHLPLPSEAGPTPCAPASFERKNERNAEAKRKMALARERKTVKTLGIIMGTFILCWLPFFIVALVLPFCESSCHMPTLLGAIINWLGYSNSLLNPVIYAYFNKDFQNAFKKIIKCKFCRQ
The following applies: transfected cell lines expressing rat and human receptors.

In data set [2] the target is T2, 5-HT2C (Homo sapiens, UniProt P28335).
T2 sequence (P28335 33-458): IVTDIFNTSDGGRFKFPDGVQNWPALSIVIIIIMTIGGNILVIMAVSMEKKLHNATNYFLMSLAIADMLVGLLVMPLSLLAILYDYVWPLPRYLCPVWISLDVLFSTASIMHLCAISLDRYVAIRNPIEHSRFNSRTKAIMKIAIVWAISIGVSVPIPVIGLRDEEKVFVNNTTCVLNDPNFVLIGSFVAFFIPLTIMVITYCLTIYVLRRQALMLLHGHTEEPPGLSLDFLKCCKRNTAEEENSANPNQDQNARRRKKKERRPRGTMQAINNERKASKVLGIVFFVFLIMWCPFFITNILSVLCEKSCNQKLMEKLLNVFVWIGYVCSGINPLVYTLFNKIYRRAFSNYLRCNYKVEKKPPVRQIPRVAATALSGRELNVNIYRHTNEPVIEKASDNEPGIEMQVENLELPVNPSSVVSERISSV
The following applies: transfected cell lines expressing rat and human receptors.

Data set [3] concerns the target 5-HT2A (Homo sapiens, UniProt P28223). The following applies: transfected cell lines expressing rat and human receptors.
Data set [4] deals with H1 receptors (Homo sapiens, UniProt P35367). The following applies: transfected cell lines expressing rat and human receptors.
Data set [5] deals with α1. The following applies: transfected cell lines expressing rat and human receptors.
Assay in data set [6]: not given
This is another data set of the same source.

Chain of 5-HT2A (P28223 whole entry): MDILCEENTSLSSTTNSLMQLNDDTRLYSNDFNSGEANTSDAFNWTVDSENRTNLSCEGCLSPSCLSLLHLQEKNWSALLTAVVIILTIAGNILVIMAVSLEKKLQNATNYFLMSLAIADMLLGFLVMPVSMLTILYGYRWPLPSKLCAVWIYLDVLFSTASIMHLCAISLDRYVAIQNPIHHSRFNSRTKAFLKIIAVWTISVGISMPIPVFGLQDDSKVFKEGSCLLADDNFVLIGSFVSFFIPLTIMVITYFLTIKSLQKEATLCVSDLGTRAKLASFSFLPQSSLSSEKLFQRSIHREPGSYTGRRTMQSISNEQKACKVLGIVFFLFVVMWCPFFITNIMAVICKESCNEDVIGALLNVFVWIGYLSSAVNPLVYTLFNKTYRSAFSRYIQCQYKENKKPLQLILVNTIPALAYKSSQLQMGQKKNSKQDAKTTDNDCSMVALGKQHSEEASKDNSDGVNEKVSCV
Chain of H1 receptors (P35367 whole entry): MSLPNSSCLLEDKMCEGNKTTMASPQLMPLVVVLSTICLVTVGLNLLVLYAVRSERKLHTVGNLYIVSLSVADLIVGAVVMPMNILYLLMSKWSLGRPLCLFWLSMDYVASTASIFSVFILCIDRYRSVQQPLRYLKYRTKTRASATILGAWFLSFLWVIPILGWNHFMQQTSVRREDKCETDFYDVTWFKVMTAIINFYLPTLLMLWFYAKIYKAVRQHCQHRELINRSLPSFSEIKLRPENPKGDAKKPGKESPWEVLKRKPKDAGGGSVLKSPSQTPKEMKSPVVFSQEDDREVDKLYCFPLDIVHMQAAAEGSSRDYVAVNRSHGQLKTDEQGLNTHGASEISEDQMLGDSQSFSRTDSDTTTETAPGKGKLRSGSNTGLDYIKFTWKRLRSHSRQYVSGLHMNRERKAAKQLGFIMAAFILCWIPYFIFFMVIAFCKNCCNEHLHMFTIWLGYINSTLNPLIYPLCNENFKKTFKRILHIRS

Turning to `O=C1CCc2ccc(OCCCCN3CCN(c4cccc(Cl)c4Cl)CC3)cc2N1` [Aripiprazole], the “affinity binding to 5-HT1A” value in data set [1] is recorded as “high affinity”. The “affinity to 5-HT2C” value in data set [2] was “moderate affinity”. Also, the “affinity binding to 5-HT2A” value in data set [3] is reported as “high affinity”. Besides, the “affinity to H1 receptors” value in data set [4] is recorded as “moderate affinity”. Further, the “affinity to α1” value in data set [5] is on record as “moderate affinity”. For the same compound, the metabolism result (humans) was “extensively metabolized”. Also, the absorption result (oral administration in humans) is “well absorbed”. Besides, the absolute oral bioavailability (oral formulation, humans) is given as 87%.
With `O=c1ccc2ccc(OCCCCN3CCN(c4cccc(Cl)c4Cl)CC3)cc2[nH]1` [dehydroaripiprazole], in data set [6] (humans), the “share of activity accounted for by metabolite” value is 20%. In addition, the “potency relative to aripiprazole” value in data set [6] (metabolite of aripiprazole) was “equipotent with aripiprazole”.
